Experimental data as given in PubChem BioAssay AID1259407 (Chemical Carcinogenesis Research Information System (CCRIS), 2018).
Activity calls are given as the source filed them. The rule behind the calls is not given here.

Tested on: CCRIS mutagenicity, Ames/micronucleus/aberration tests
Assay: CCRIS mutagenicity studies
[1] = Test System: AMES SALMONELLA TYPHIMURIUM, Strain/Indicator: TA98, Metabolic Activation: NONE, Method: PREINCUBATION
[2] = Test System: AMES SALMONELLA TYPHIMURIUM, Strain/Indicator: TA100, Metabolic Activation: NONE, Method: PREINCUBATION
[3] = Test System: AMES SALMONELLA TYPHIMURIUM, Strain/Indicator: TA1535, Metabolic Activation: NONE, Method: PREINCUBATION
[4] = Test System: AMES SALMONELLA TYPHIMURIUM, Strain/Indicator: TA1537, Metabolic Activation: NONE, Method: PREINCUBATION
[5] = Test System: AMES SALMONELLA TYPHIMURIUM, Strain/Indicator: TA98, Metabolic Activation: NONE, Method: STANDARD PLATE
[6] = Test System: AMES SALMONELLA TYPHIMURIUM, Strain/Indicator: TA98, Metabolic Activation: RAT, LIVER, S-9, AROCLOR 1254, Method: STANDARD PLATE
[7] = Test System: AMES SALMONELLA TYPHIMURIUM, Strain/Indicator: TA100, Metabolic Activation: NONE, Method: STANDARD PLATE
[8] = Test System: AMES SALMONELLA TYPHIMURIUM, Strain/Indicator: TA100, Metabolic Activation: RAT, LIVER, S-9, AROCLOR 1254, Method: STANDARD PLATE

Structure (SMILES): Cc1cccc(C)c1NC(=O)CN1CCCC1=O
- mutagenic call [1]: inactive; negative
- mutagenic call (Test System: AMES SALMONELLA TYPHIMURIUM, Strain/Indicator: TA98, Metabolic Activation: RAT, LIVER, S-9, SODIUM PHENOBARBITAL AND 5,6-BENZOFLAVONE, Method: PREINCUBATION): inactive; negative
- mutagenic call [2]: inactive; negative
- mutagenic call (Test System: AMES SALMONELLA TYPHIMURIUM, Strain/Indicator: TA100, Metabolic Activation: RAT, LIVER, S-9, SODIUM PHENOBARBITAL AND 5,6-BENZOFLAVONE, Method: PREINCUBATION): inactive; negative
- mutagenic call [3]: inactive; negative
- mutagenic call (Test System: AMES SALMONELLA TYPHIMURIUM, Strain/Indicator: TA1535, Metabolic Activation: RAT, LIVER, S-9, SODIUM PHENOBARBITAL AND 5,6-BENZOFLAVONE, Method: PREINCUBATION): inactive; negative
- mutagenic call [4]: inactive; negative
- mutagenic call (Test System: AMES SALMONELLA TYPHIMURIUM, Strain/Indicator: TA1537, Metabolic Activation: RAT, LIVER, S-9, SODIUM PHENOBARBITAL AND 5,6-BENZOFLAVONE, Method: PREINCUBATION): inactive; negative
- mutagenic call (Test System: E. COLI, Strain/Indicator: WP2 UVRA, Metabolic Activation: NONE, Method: PREINCUBATION): inactive; negative
- mutagenic call (Test System: E. COLI, Strain/Indicator: WP2 UVRA, Metabolic Activation: RAT, LIVER, S-9, SODIUM PHENOBARBITAL AND 5,6-BENZOFLAVONE, Method: PREINCUBATION): inactive; negative

Structure (SMILES): O=CN(O)c1ccc(F)cc1
- mutagenic call [5]: inactive; negative
- mutagenic call [6]: active; positive
- mutagenic call [7]: inactive; negative
- mutagenic call [8]: active; positive

Structure (SMILES): C1COC1
- mutagenic call (Test System: AMES SALMONELLA TYPHIMURIUM, Strain/Indicator: TA97, Metabolic Activation: HAMSTER, LIVER, S-9, AROCLOR 1254 (30%), Method: PREINCUBATION): inactive; negative
- mutagenic call (Test System: AMES SALMONELLA TYPHIMURIUM, Strain/Indicator: TA97, Metabolic Activation: NONE, Method: PREINCUBATION): inactive; negative
- mutagenic call (Test System: AMES SALMONELLA TYPHIMURIUM, Strain/Indicator: TA97, Metabolic Activation: RAT, LIVER, S-9, AROCLOR 1254 (30%), Method: PREINCUBATION): inactive; negative
- mutagenic call (Test System: AMES SALMONELLA TYPHIMURIUM, Strain/Indicator: TA98, Metabolic Activation: HAMSTER, LIVER, S-9, AROCLOR 1254 (30%), Method: PREINCUBATION): inactive; negative
- mutagenic call [1]: inactive; negative
- mutagenic call (Test System: AMES SALMONELLA TYPHIMURIUM, Strain/Indicator: TA98, Metabolic Activation: RAT, LIVER, S-9, AROCLOR 1254 (30%), Method: PREINCUBATION): inactive; negative
- mutagenic call (Test System: AMES SALMONELLA TYPHIMURIUM, Strain/Indicator: TA100, Metabolic Activation: HAMSTER, LIVER, S-9, AROCLOR 1254 (30%), Method: PREINCUBATION): inactive; negative
- mutagenic call [2]: inactive; negative
- mutagenic call (Test System: AMES SALMONELLA TYPHIMURIUM, Strain/Indicator: TA100, Metabolic Activation: RAT, LIVER, S-9, AROCLOR 1254 (30%), Method: PREINCUBATION): inactive; negative
- mutagenic call (Test System: AMES SALMONELLA TYPHIMURIUM, Strain/Indicator: TA1535, Metabolic Activation: HAMSTER, LIVER, S-9, AROCLOR 1254 (10 OR 30%), Method: PREINCUBATION): active; positive
- mutagenic call [3]: inactive; negative
- mutagenic call (Test System: AMES SALMONELLA TYPHIMURIUM, Strain/Indicator: TA1535, Metabolic Activation: RAT, LIVER, S-9, AROCLOR 1254 (10 OR 30%), Method: PREINCUBATION): active; positive
- mutagenic call (Test System: AMES SALMONELLA TYPHIMURIUM, Strain/Indicator: TA1537, Metabolic Activation: HAMSTER, LIVER, S-9, AROCLOR 1254 (30%), Method: PREINCUBATION): inactive; negative
- mutagenic call [4]: inactive; negative
- mutagenic call (Test System: AMES SALMONELLA TYPHIMURIUM, Strain/Indicator: TA1537, Metabolic Activation: RAT, LIVER, S-9, AROCLOR 1254 (30%), Method: PREINCUBATION): inactive; negative

Structure (SMILES): Nc1ccc2c(c1)Cc1cc(N)ccc1-2
- mutagenic call [5]: active; positive
- mutagenic call [6]: active; positive
- mutagenic call [7]: inactive; negative
- mutagenic call [8]: active; positive
- mutagenic call (Test System: AMES SALMONELLA TYPHIMURIUM, Strain/Indicator: TA1538, Metabolic Activation: NONE, Method: STANDARD PLATE): active; positive
- mutagenic call (Test System: AMES SALMONELLA TYPHIMURIUM, Strain/Indicator: TA1538, Metabolic Activation: RAT, LIVER, S-9, AROCLOR 1254, Method: STANDARD PLATE): active; positive

Structure (SMILES): Clc1nncc2ccccc12
- mutagenic call [1]: inactive; negative
- mutagenic call (Test System: AMES SALMONELLA TYPHIMURIUM, Strain/Indicator: TA98, Metabolic Activation: RAT, LIVER, S-9, PCB, Method: PREINCUBATION): inactive; negative
- mutagenic call [2]: inactive; negative
- mutagenic call (Test System: AMES SALMONELLA TYPHIMURIUM, Strain/Indicator: TA100, Metabolic Activation: RAT, LIVER, S-9, PCB, Method: PREINCUBATION): inactive; negative

Structure (SMILES): Cc1c(N=O)cccc1[N+](=O)[O-]
- mutagenic call [1]: inactive; negative
- mutagenic call (Test System: AMES SALMONELLA TYPHIMURIUM, Strain/Indicator: TA98, Metabolic Activation: RAT, LIVER, S-9, PHENOBARBITAL AND 5,6-BENZOFLAVONE, Method: PREINCUBATION): inactive; negative
- mutagenic call [2]: inactive; negative
- mutagenic call (Test System: AMES SALMONELLA TYPHIMURIUM, Strain/Indicator: TA100, Metabolic Activation: RAT, LIVER, S-9, PHENOBARBITAL AND 5,6-BENZOFLAVONE, Method: PREINCUBATION): inactive; negative

Structure (SMILES): Cc1ccc(N=CN(C)C=Nc2ccc(C)cc2C)c(C)c1
- mutagenic call (Test System: AMES SALMONELLA TYPHIMURIUM, Strain/Indicator: TA97, Metabolic Activation: NONE, Method: STANDARD PLATE): inactive; negative
- mutagenic call (Test System: AMES SALMONELLA TYPHIMURIUM, Strain/Indicator: TA97, Metabolic Activation: RAT, LIVER, S-9, AROCLOR 1254, Method: STANDARD PLATE): inactive; negative
- mutagenic call [5]: inactive; negative
- mutagenic call [6]: inactive; negative
- mutagenic call [7]: inactive; negative
- mutagenic call [8]: inactive; negative
- mutagenic call (Test System: AMES SALMONELLA TYPHIMURIUM, Strain/Indicator: TA102, Metabolic Activation: NONE, Method: STANDARD PLATE): inactive; negative
- mutagenic call (Test System: AMES SALMONELLA TYPHIMURIUM, Strain/Indicator: TA102, Metabolic Activation: RAT, LIVER, S-9, AROCLOR 1254, Method: STANDARD PLATE): inactive; negative
